The results in this text go back to ChEMBL document CHEMBL2163249, “Exploration of natural compounds as sources of new bifunctional scaffolds targeting cholinesterases and beta amyloid aggregation: the case of chelerythrine” (Bioorg Med Chem, 2012).

Sequence of Acetylcholinesterase (Electrophorus electricus) (O42275 24-633 limits assumed): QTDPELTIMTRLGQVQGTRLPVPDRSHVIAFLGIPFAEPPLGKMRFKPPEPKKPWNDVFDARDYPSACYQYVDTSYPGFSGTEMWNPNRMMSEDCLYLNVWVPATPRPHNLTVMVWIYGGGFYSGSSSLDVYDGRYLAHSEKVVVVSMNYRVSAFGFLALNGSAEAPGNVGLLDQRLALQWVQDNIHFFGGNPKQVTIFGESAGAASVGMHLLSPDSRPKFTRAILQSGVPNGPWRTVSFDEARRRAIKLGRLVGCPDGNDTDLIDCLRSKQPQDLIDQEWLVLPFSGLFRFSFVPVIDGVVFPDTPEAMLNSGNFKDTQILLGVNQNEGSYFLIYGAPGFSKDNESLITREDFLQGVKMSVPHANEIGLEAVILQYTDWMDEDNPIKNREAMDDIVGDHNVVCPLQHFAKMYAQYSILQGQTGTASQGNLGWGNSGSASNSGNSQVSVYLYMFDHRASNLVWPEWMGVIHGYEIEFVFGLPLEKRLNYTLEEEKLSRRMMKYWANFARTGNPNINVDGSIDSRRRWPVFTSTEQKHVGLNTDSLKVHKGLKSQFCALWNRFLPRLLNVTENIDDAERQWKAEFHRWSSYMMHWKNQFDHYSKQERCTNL

The first test addresses Acetylcholinesterase (Electrophorus electricus) (UniProt O42275). Conditions: at 2 mg/mL.
Description: Inhibition of electric eel AChE at 2 mg/ml by Ellman's method
The term inhibition denotes the relative decrease from the control value, in per cent. Turning to `COc1cc2c(c3oc4cccc(O)c4c(=O)c13)[C@@H]1C=CO[C@@H]1O2`, the inhibition came to 18.2%.
Take `C[C@@]1(CO)[C@H](O)CC[C@@]2(C)[C@H]1CC[C@H]1C[C@@H]3C[C@@]12CC[C@]3(O)CO`: the inhibition came to 8.45%.
Take `C[C@H]1C(=O)CC[C@@H]2[C@]1(C)CC[C@H]1[C@@]2(C)CC[C@@]2(C)[C@@H]3CC(C)(C)CC[C@]3(C)CC[C@]12C`: the inhibition was -3.69%.
For `CO[C@@]12[C@H](COC(N)=O)C3=C(C(=O)C(C)=C(N)C3=O)N1C[C@@H]1N[C@@H]12`, the inhibition turned out to be 4.01%.
As for `O=C1Cc2c([nH]c3ccc(Br)cc23)-c2ccccc2N1`, the inhibition is -7.55%.
On to `O=c1c(O)c(-c2ccc(O)c(O)c2)oc2cc(O)ccc12`, for which the inhibition was 27.5%.
On to `O=c1c(O)c(-c2cc(O)c(O)c(O)c2)oc2cc(O)cc(O)c12`, for which the inhibition stood at 4.65%.
Turning to `C[C@@H]1CC[C@]2(NC1)O[C@H]1C[C@H]3[C@@H]4CC=C5C[C@@H](O)CC[C@]5(C)[C@H]4CC[C@]3(C)[C@H]1[C@@H]2C`, the inhibition is 1.63%.
The same measure, in the same setting: under `O=c1cc(-c2ccc(O)cc2)oc2c([C@@H]3O[C@H](CO)[C@@H](O)[C@H](O)[C@H]3O)c(O)cc(O)c12` stands 3.3%; under `CCCCC1OC(=O)C2=CCCCC21` (stereo not given), -0.57%.
In the case of `CCN1C[C@]2(C)CC[C@H](O)[C@]34C1[C@@H](C[C@H]23)[C@@]1(O)C[C@H](OC)[C@H]2C[C@@H]4[C@@H]1[C@H]2O`, the inhibition was 20%.
With `OC[C@@H]1CCCN2CCCC[C@H]12`, the inhibition was 1.61%.
Take `O=C1C[C@@H](c2ccc(O)c(O)c2)Oc2cc(O)cc(O)c21`: the inhibition came out at 20.2%.
As to `C=CCc1cc(OC)c2c(c1)OCO2`, the inhibition was 6.75%.
For the compound `O=C1C[C@@H]2OCC=C3CN4CC[C@]56c7ccccc7N1[C@H]5[C@H]2[C@H]3C[C@H]46`, the inhibition amounted to 12.2%.
Regarding `COc1ccc(C[C@H](N)C(=O)N[C@H]2[C@@H](O)[C@H](n3cnc4c(N(C)C)ncnc43)O[C@@H]2CO)cc1`, the inhibition was -7.92%.
For the compound `COc1c(O)cc(O)c2c(=O)cc(-c3ccccc3)oc12`, the inhibition is -1.48%.
For the compound `C/C=C1\CN2CC[C@]34C(=C(CC=O)[C@H]1C[C@H]23)Nc1ccccc14`, the inhibition was found to be 21.1%.
Consider `C[C@@]12CCc3occc3[C@H]1CC[C@@]13C[C@@H](CC[C@H]12)[C@@](O)(CO)C3`, for which the inhibition was -1.43%.
On the same count and under the same terms, under `C[N+](C)(C)CC(O)CC(=O)O` (racemic) stands -6.56%.
As to `COc1c2c(nc3ccccc13)OC(C(C)(O)CO)C2` (stereo not given), the inhibition worked out at 22.5%.
Still for that read-out and setting: under `C=C[C@H]1CN2CC[C@H]1C[C@H]2[C@H](O)c1ccnc2ccccc12` stands 3.63%; under `C[C@H]1[C@H]2CC[C@H]3[C@@H]4CC=C5C[C@@H](N(C)C)CC[C@]5(C)[C@H]4CC[C@]23CN1C`, 29.9%.
`COc1cc(-c2oc3cc(O)cc(O)c3c(=O)c2OC2O[C@H](CO)[C@@H](O)[C@H](O)[C@H]2O)cc(OC)c1O` (stereo not given in full): the inhibition worked out at 3.25%.
With `N[C@@H](Cn1ccc(=O)c(O)c1)C(=O)O`, the inhibition is 7.74%.

A further test deals with Cholinesterase (Equus caballus) (UniProt P81908). Conditions: at 2 mg/mL.
Sequence of Cholinesterase (Equus caballus) (P81908 whole entry): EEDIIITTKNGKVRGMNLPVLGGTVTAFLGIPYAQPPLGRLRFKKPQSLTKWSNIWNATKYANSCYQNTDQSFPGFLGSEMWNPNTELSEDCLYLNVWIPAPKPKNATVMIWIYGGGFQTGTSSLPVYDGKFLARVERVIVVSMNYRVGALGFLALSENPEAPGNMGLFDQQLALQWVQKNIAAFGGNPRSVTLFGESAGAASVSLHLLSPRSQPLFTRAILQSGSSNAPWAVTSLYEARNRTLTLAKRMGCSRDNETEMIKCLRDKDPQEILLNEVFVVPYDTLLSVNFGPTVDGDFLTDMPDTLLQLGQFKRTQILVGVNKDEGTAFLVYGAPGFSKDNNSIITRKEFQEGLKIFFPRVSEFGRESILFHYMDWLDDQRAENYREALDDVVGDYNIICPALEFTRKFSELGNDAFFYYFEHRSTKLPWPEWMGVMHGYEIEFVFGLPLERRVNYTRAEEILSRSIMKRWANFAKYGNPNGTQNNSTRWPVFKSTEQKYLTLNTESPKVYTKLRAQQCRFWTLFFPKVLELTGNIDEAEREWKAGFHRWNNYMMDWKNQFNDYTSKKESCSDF
Description: Inhibition of horse BChE at 2 mg/ml by Ellman's method
On to `COc1cc2c(c3oc4cccc(O)c4c(=O)c13)[C@@H]1C=CO[C@@H]1O2`, for which the inhibition is -2.65%.
As for `C[C@@]1(CO)[C@H](O)CC[C@@]2(C)[C@H]1CC[C@H]1C[C@@H]3C[C@@]12CC[C@]3(O)CO`, the inhibition amounted to 13.5%.
On to `C[C@H]1C(=O)CC[C@@H]2[C@]1(C)CC[C@H]1[C@@]2(C)CC[C@@]2(C)[C@@H]3CC(C)(C)CC[C@]3(C)CC[C@]12C`, for which the inhibition was -0.57%.
Turning to `CO[C@@]12[C@H](COC(N)=O)C3=C(C(=O)C(C)=C(N)C3=O)N1C[C@@H]1N[C@@H]12`, the inhibition turned out to be 3.34%.
As for `O=C1Cc2c([nH]c3ccc(Br)cc23)-c2ccccc2N1`, the inhibition was -1%.
Take `O=c1c(O)c(-c2ccc(O)c(O)c2)oc2cc(O)ccc12`: the inhibition was found to be 2.06%.
For `O=c1c(O)c(-c2cc(O)c(O)c(O)c2)oc2cc(O)cc(O)c12`, the inhibition was -3.14%.
On the same count and under the same terms, under `C[C@@H]1CC[C@]2(NC1)O[C@H]1C[C@H]3[C@@H]4CC=C5C[C@@H](O)CC[C@]5(C)[C@H]4CC[C@]3(C)[C@H]1[C@@H]2C` stands 53.7%; under `O=c1cc(-c2ccc(O)cc2)oc2c([C@@H]3O[C@H](CO)[C@@H](O)[C@H](O)[C@H]3O)c(O)cc(O)c12`, 2.26%.
Take `CCCCC1OC(=O)C2=CCCCC21` (stereo not given): the inhibition turned out to be 4.12%.
Consider `CCN1C[C@]2(C)CC[C@H](O)[C@]34C1[C@@H](C[C@H]23)[C@@]1(O)C[C@H](OC)[C@H]2C[C@@H]4[C@@H]1[C@H]2O`, for which the inhibition was -5.97%.
Turning to `OC[C@@H]1CCCN2CCCC[C@H]12`, the inhibition is -7.44%.
In the case of `O=C1C[C@@H](c2ccc(O)c(O)c2)Oc2cc(O)cc(O)c21`, the inhibition was -0.11%.
On to `C=CCc1cc(OC)c2c(c1)OCO2`, for which the inhibition was -9.87%.
Consider `O=C1C[C@@H]2OCC=C3CN4CC[C@]56c7ccccc7N1[C@H]5[C@H]2[C@H]3C[C@H]46`, for which the inhibition was found to be 32.4%.
As for `COc1ccc(C[C@H](N)C(=O)N[C@H]2[C@@H](O)[C@H](n3cnc4c(N(C)C)ncnc43)O[C@@H]2CO)cc1`, the inhibition was -9.98%.
On to `COc1c(O)cc(O)c2c(=O)cc(-c3ccccc3)oc12`, for which the inhibition was -5.86%.
In the case of `C/C=C1\CN2CC[C@]34C(=C(CC=O)[C@H]1C[C@H]23)Nc1ccccc14`, the inhibition is 12%.
In the case of `C[C@@]12CCc3occc3[C@H]1CC[C@@]13C[C@@H](CC[C@H]12)[C@@](O)(CO)C3`, the inhibition came to 13.8%.
As to `C[N+](C)(C)CC(O)CC(=O)O` (racemic), the inhibition is -2.91%.
On the same count and under the same terms, for `COc1c2c(nc3ccccc13)OC(C(C)(O)CO)C2` (stereo not given) the value was -2.71%; for `C=C[C@H]1CN2CC[C@H]1C[C@H]2[C@H](O)c1ccnc2ccccc12`, -0.03%.
Still for that read-out and setting: under `C[C@H]1[C@H]2CC[C@H]3[C@@H]4CC=C5C[C@@H](N(C)C)CC[C@]5(C)[C@H]4CC[C@]23CN1C` stands 45.2%; under `COc1cc(-c2oc3cc(O)cc(O)c3c(=O)c2OC2O[C@H](CO)[C@@H](O)[C@H](O)[C@H]2O)cc(OC)c1O` (stereo not given in full), 2.12%.
With `N[C@@H](Cn1ccc(=O)c(O)c1)C(=O)O`, the inhibition was 11.2%.
